Data reported in paper PMC4191898 (Bioorganic & medicinal chemistry letters, 2014).

tested on: DU-145 cells; assay: antiproliferative activity against DU-145 cells; format: cell-based, human; conditions: not given

Q: Which “antiproliferative activity (in words)” value does the source give for O=C(NCc1ccsc1)N1CCC(c2nc(Cc3ccccc3)no2)C1 (centres unmarked) [Compound 15] here?
A: drastically reduced

Q: Which “antiproliferative activity (in words)” value does the source give for COC(=O)CNC(=O)N1CCC(c2nc(-c3ccc(F)cc3)no2)CC1 [Compound 8e] here?
A: no activity was detected

Q: O=C(NCc1ccsc1)N1CCCC(c2nc(Cc3ccccc3)no2)C1 (centres unmarked) [Compound 13] was tested. Which “antiproliferative activity (in words)” value did it give?
A: completely eliminated

Q: For O=C(NCc1ccsc1)N1CCCCC1c1nc(Cc2ccccc2)no1 (centres unmarked) [Compound 14], which “antiproliferative activity (in words)” value is on record?
A: completely eliminated

Q: For O=C(NCc1ccccc1)N1CCC(c2nc(Cc3ccccc3)no2)CC1 [Compound 11b], which “GI50 values (range in words)” value is on record?
A: submicromolar range

Q: O=C(N1CCC(c2nc(-c3ccc(F)cc3)no2)CC1)N1CCc2ccccc2C1 [Compound 8j] was tested. Which “antiproliferative activity (in words)” value did it give?
A: markedly lower

Q: With O=C(NCc1ccccc1)N1CCC(c2nc(COc3ccccc3)no2)CC1 [Compound 11d] as the molecule, how does the “GI50 values (range in words)” value read?
A: submicromolar range

Q: For O=C(NCc1ccsc1)N1CCC(c2nc(-c3ccc(F)cc3)no2)CC1 [Compound 8g], which “GI50 values (range in words)” value is on record?
A: submicromolar range

Q: C#CCNC(=O)N1CCC(c2nc(-c3ccc(F)cc3)no2)CC1 [Compound 8k] was tested. Which “antiproliferative activity (in words)” value did it give?
A: no activity was detected

Q: With CCCCNC(=O)N1CCC(c2nc(-c3ccc(F)cc3)no2)CC1 [Compound 8b] as the molecule, how does the “antiproliferative activity (in words)” value read?
A: no activity was detected

Q: With O=C(NCc1ccsc1)N1CCCC1c1nc(Cc2ccccc2)no1 (centres unmarked) [Compound 16] as the molecule, how does the “antiproliferative activity (in words)” value read?
A: completely eliminated

Q: With CN(Cc1ccco1)C(=O)N1CCC(c2nc(-c3ccc(F)cc3)no2)CC1 [Compound 8a] as the molecule, how does the “antiproliferative activity (in words)” value read?
A: markedly lower

Q: O=C(N1CCC(c2nc(-c3ccc(F)cc3)no2)CC1)N1CCCc2ccccc21 [Compound 8i] was tested. Which “antiproliferative activity (in words)” value did it give?
A: complete loss

Q: With Cc1cc(CNC(=O)N2CCC(c3nc(-c4ccc(F)cc4)no3)CC2)nn1C [Compound 8o] as the molecule, how does the “GI50 values (range in words)” value read?
A: submicromolar range

same assay, conditions: means of three experiments ± standard deviation, Inactive = <20% DU-145 growth inhibition at 50 μM

Q: With O=C(N1CCOCC1)N1CCC(c2nc(-c3ccc(F)cc3)no2)CC1 [Compound 8n] as the molecule, how does the GI50 read?
A: Inactive

Q: With CC(C)(C)NC(=O)N1CCC(c2nc(-c3ccc(F)cc3)no2)CC1 [Compound 8q] as the molecule, how does the GI50 read?
A: Inactive

Q: For O=C(NCC1CC1)N1CCC(c2nc(-c3ccc(F)cc3)no2)CC1 [Compound 8s], which GI50 is on record?
A: Inactive

Q: How did the GI50 turn out when COCCNC(=O)N1CCC(c2nc(-c3ccc(F)cc3)no2)CC1 [Compound 8r] was run?
A: Inactive

Q: Which GI50 does the source give for COC(=O)CNC(=O)N1CCC(c2nc(-c3ccc(F)cc3)no2)CC1 [Compound 8e] here?
A: Inactive

Q: For CC(C)Cc1noc(C2CCN(C(=O)NCc3ccccc3)CC2)n1 [Compound 11i], which GI50 is on record?
A: Inactive

Q: How did the GI50 turn out when O=C(N1CCCCC1)N1CCC(c2nc(-c3ccc(F)cc3)no2)CC1 [Compound 8m] was run?
A: Inactive

Q: For O=C(N1CCC(c2nc(-c3ccc(F)cc3)no2)CC1)N1CCc2ccccc21 [Compound 8l], which GI50 is on record?
A: Inactive

Q: With Cc1noc(C2CCN(C(=O)NCc3ccccc3)CC2)n1 [Compound 11j] as the molecule, how does the GI50 read?
A: Inactive

Q: Which GI50 does the source give for C#CCNC(=O)N1CCC(c2nc(-c3ccc(F)cc3)no2)CC1 [Compound 8k] here?
A: Inactive

Q: How did the GI50 turn out when CCCCNC(=O)N1CCC(c2nc(-c3ccc(F)cc3)no2)CC1 [Compound 8b] was run?
A: Inactive

Q: For O=C(N1CCC(c2nc(-c3ccc(F)cc3)no2)CC1)N1CCCc2ccccc21 [Compound 8i], which GI50 is on record?
A: Inactive
